What was measured:
[1] = tested on: corn (ZEAMX); assay: Selectivity test, pre-emergence, warm season crop; assay type: in vivo; settings: Zea mays, pre-emergence application, read-out: Percent inhibition, crop ZEAMX
Method: (§1) The pre-emergence tests were conducted by the following procedure. Topsoil was sieved to pass through a 1.27 cm screen. Fertilizer was added to the topsoil and the mixture was then sterilized by heating. The topsoil mixture was placed in a pot and compacted to a depth of 1.0 to 1.25 cm from the top of the pot. Seeds of each of several monocotyledonous and dicotyledonous annual plant species were placed on top of the soil. Additional soil was subsequently placed over the seeds to level-fill the pot. A known amount of each test compound dissolved or suspended in an appropriate organic solvent was diluted with a 50:50 mix of acetone and water and applied to the surface of the soil. After treatment the plants were placed in a greenhouse where they received 0.64 cm of overhead irrigation. All subsequent watering consisted of a light overhead mist and/or subirrigation as needed for germination and growth. Tables 5 and 6 below relate to warm season plant species which were placed after pre-emergence treatment in a greenhouse with a 30/21° C. day/night temperature regime. Tables 7 and 8 below relates to cool season plant species placed after pre-emergence treatment in a greenhouse or growth chamber with an 18/13° C. day/night temperature regime.
(§2) Approximately 14 days after planting and treating, the plants were observed and herbicidal efficacy recorded as percent inhibition by comparison with untreated plants.
(§3) Additional pre-emergence and PPI tests were conducted by the procedures described above, on warm and cool season weed species in the presence of crop species, to assess herbicidal selectivity. Crop species included in warm season tests were corn (Zea mays, ZEAMX), rice (Oryza sativa, ORYSA) and soybean (Glycine max, GLYMX). Crop species included in cool season tests were wheat (Triticum aestivum, TRZAW), barley (Hordeunm vulgare, HORVX) and oilseed rape (Brassica napus, BRSNS).
(§4) Tables 15 and 16 relate to pre-emergence and PPI tests respectively on warm season species. Table 17 relates to pre-emergence tests on cool season species.

[2] = tested on: rice (ORYSA); assay: Selectivity test, pre-emergence, warm season crop; assay type: in vivo; settings: Oryza sativa, pre-emergence application, read-out: Percent inhibition, crop ORYSA
Method: as §1, §2, §3, §4

[3] = tested on: SEBEX; assay: Pre-emergence herbicidal activity, warm season (selectivity test, Table 15); assay type: in vivo; settings: pre-emergence application, read-out: Percent inhibition, weed SEBEX
Method: as §1, §2, §3, §4

[4] = tested on: XANST (cocklebur); assay: Pre-emergence herbicidal activity, warm season; assay type: in vivo; settings: Xanthium strumarium, pre-emergence application, read-out: Percent inhibition, weed XANST
Method: (§5) Tables 5 to 8 summarize results of tests conducted as described below to determine the pre-emergence herbicidal activity, in the form of a GR80 value, of illustrative compounds of this invention. […] Compounds of the invention were typically applied at rates of 300, 100, 30, and 10 g/ha. Where herbicidal activity was evident but 80% inhibition was not achieved at the highest rate tested, an asterisk (*) is shown in the following tables.
as §1, §2
(§6) The plant species usually regarded as weeds which were utilized in the tests are identified in the tables below according to the following legend, in which “d” indicates a dicotyledonous species and “m” a monocotyledonous species. All monocotyledonous species included in the tests herein are grasses.

[5] = tested on: CONAR (field bindweed); assay: Pre-emergence herbicidal activity, warm season; assay type: in vivo, Convolvulus arvensis; settings: GR80 = lowest tested rate (300, 100, 30, 10 g/ha) with 80% or greater inhibition; approx. 14 days after treating; 30/21° C.
Method in brief: (§7)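 Seeds sown in sterilised fertilised topsoil received surface-applied compound in 50:50 acetone/water, typically at 300, 100, 30 and 10 g/ha, then greenhouse-grown at 30/21° C (warm-season species) or 18/13° C (cool-season species). Percent inhibition versus untreated plants was scored at about 14 days, giving GR80; an asterisk marks activity short of 80% at the top rate.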

[6] = tested on: IPOSS (annual morningglory); assay: Pre-emergence herbicidal activity, warm season; assay type: in vivo, Ipomoea spp.; settings: Ipomoea, pre-emergence application, read-out: Percent inhibition, weed IPOSS
Method: as §5, §1, §2, §6

[7] = tested on: DATST (jimsonweed); assay: Pre-emergence herbicidal activity, warm season; assay type: in vivo, Datura stramonium; settings: for Pre-emergence activity (GR80) DATST: GR80 = lowest tested rate (300, 100, 30, 10 g/ha) with 80% or greater inhibition, approx. 14 days after treating, 30/21° C.
Method in brief: as §7

[8] = tested on: CONAR (field bindweed); assay: Pre-plant incorporated (PPI) herbicidal activity, warm season; assay type: in vivo, Convolvulus arvensis; settings: GR80 = lowest tested rate with 80% or greater inhibition, approx. 14 days after treating, 30/21° C.
Method: (§8) In another set of tests, the pre-plant incorporated (PPI) activity of compounds of this invention was evaluated on the same species as for the pre-emergence tests described above. In the PPI tests the following procedure, designed to simulate PPI application, was used.
(§9) A pre-prepared topsoil mixture (described above) was placed in a pot and compacted to a depth of 1.0 to 1.25 cm from the top of the pot. Seeds of each of several monocotyledonous and dicotyledonous annual plant species were placed on top of the soil. A sufficient quantity of soil to cover the seeds and level fill the pot was weighed into an open container. A known amount of the test compound was dissolved or suspended in an organic solvent and applied by spraying to this cover soil. The cover soil was thoroughly mixed to distribute the test compound throughout the cover soil, and was then applied as a cover layer over the seeds. Untreated soil was used as a cover layer for control pots. After treatment the plants were placed in a greenhouse where they received 0.64 cm of overhead irrigation. All subsequent watering consisted of a light overhead mist and/or subirrigation as needed for germination and growth. Tables 9 and 10 below relate to warm season plant species which were placed after pre-emergence treatment in a greenhouse with a 30/21° C. day/night temperature regime. Tables 11 and 12 below relates to cool season plant species placed after pre-emergence treatment in a greenhouse or growth chamber with an 18/13° C. day/night temperature regime. Only the compounds of Examples 1, 6, 8, 11, 13 and 15-20 were included in PPI tests.
as §2

[9] = tested on: SEBEX; assay: as above; assay type: in vivo; settings: PPI application, read-out: Percent inhibition SEBEX
Method: as §3

[10] = tested on: POROL (common purslane); assay: as above; assay type: in vivo, Portulaca oleracea; settings: GR80 = lowest tested rate with 80% or greater inhibition, approx. 14 days after treating, 30/21° C.
Method: as §8, §9, §2

[11] = tested on: ABUTH (velvetleaf); assay: Pre-emergence herbicidal activity, warm season; assay type: in vivo, Abutilon theophrasti; settings: for Pre-emergence activity (GR80) ABUTH: GR80 = lowest tested rate (300, 100, 30, 10 g/ha) with 80% or greater inhibition, approx. 14 days after treating, 30/21° C.
Method in brief: as §7

[12] = Datura stramonium, pre-emergence application, read-out: Percent inhibition, weed DATST
[13] = Abutilon theophrasti, pre-emergence application, read-out: Percent inhibition, weed ABUTH

What does the source list for `CCN(CC)C(=O)n1cnc(S(=O)(=O)C(F)(F)Br)n1` [Example 1, 3-(bromodifluoromethylsulfonyl)-1-(N,N-diethylcarbamoyl)-1,2,4-triazole]?
inhibition at 10 g/ha [1]: 0%; inhibition at 30 g/ha [1]: 0%; inhibition at 100 g/ha [1]: 0%; inhibition at 300 g/ha [1]: 0%; inhibition at 900 g/ha [1]: 10%; inhibition at 10 g/ha [2]: 0%; inhibition at 30 g/ha [2]: 0%; inhibition at 100 g/ha [2]: 0%; inhibition at 900 g/ha [2]: 10%; inhibition at 10 g/ha [3]: 0%; inhibition at 30 g/ha [3]: 0%; inhibition at 100 g/ha [3]: 0%; inhibition at 300 g/ha [3]: 0%; inhibition at 900 g/ha [3]: 0%; inhibition at 10 g/ha [4]: 0%; inhibition at 30 g/ha [4]: 0%; Pre-emergence activity (GR80) CONAR [5]: 300 g/ha; melting point: 74 to 75 °C; inhibition at 10 g/ha [6]: 0%; inhibition at 30 g/ha [6]: 0%; inhibition at 100 g/ha [6]: 0%; inhibition at 300 g/ha [6]: 0%; inhibition at 900 g/ha [6]: 0%; inhibition at 10 g/ha [7, 12]: 0%; inhibition at 30 g/ha [7, 12]: 0%; inhibition at 100 g/ha [7, 12]: 0%; inhibition at 300 g/ha [7, 12]: 0%; inhibition at 900 g/ha ([7]; Datura stramonium, pre-emergence application, 900 g/ha, read-out: Percent inhibition, weed DATST): 20%; Pre-emergence activity (GR80) DATST [7]: 300 g/ha; PPI activity (GR80) CONAR [8]: 100 g/ha; inhibition at 10 g/ha [9]: 0%; inhibition at 30 g/ha [9]: 0%; inhibition at 100 g/ha ([9]; 100 g/ha): 0%; inhibition at 300 g/ha [9]: 0%; inhibition at 900 g/ha [9]: 20%; PPI activity (GR80) POROL [10]: 30 g/ha; inhibition at 10 g/ha [11, 13]: 0%; inhibition at 30 g/ha [11, 13]: 0%; inhibition at 300 g/ha [11, 13]: 0%; inhibition at 900 g/ha [11, 13]: 0%; Pre-emergence activity (GR80) ABUTH [11]: 300 g/ha

With `CCN(CC)C(=O)n1cnc(S(=O)(=O)C(F)F)n1` [Example 15, 1-(N,N-diethylcarbamoyl)-3-(difluoromethylsulfonyl)-1,2,4-triazole] as the molecule, how does the inhibition at 10 g/ha [1] read?
The inhibition at 10 g/ha was 0%.

And the inhibition at 30 g/ha [1]?
Its inhibition at 30 g/ha is 0%.

And the inhibition at 100 g/ha [1]?
The inhibition at 100 g/ha was 0%.

And the inhibition at 300 g/ha [1]?
Its inhibition at 300 g/ha is 0%.

What about the inhibition at 900 g/ha [1] of the same molecule?
The inhibition at 900 g/ha was 0%.

What about the inhibition at 10 g/ha [2] of the same molecule?
Its inhibition at 10 g/ha is 0%.

What about the inhibition at 30 g/ha [2] of the same molecule?
The inhibition at 30 g/ha was 0%.

And the inhibition at 100 g/ha [2]?
The inhibition at 100 g/ha was 0%.

And the inhibition at 300 g/ha ([2]; 300 g/ha)?
The inhibition at 300 g/ha was 0%.

What about the inhibition at 900 g/ha [2] of the same molecule?
The inhibition at 900 g/ha was 0%.

And the inhibition at 10 g/ha [3]?
Its inhibition at 10 g/ha is 0%.

What about the inhibition at 30 g/ha [3] of the same molecule?
Its inhibition at 30 g/ha is 0%.

And the inhibition at 100 g/ha [3]?
The inhibition at 100 g/ha was 0%.

And the inhibition at 300 g/ha [3]?
Its inhibition at 300 g/ha is 0%.

And the inhibition at 900 g/ha [3]?
The inhibition at 900 g/ha was 35%.

What about the inhibition at 10 g/ha [4] of the same molecule?
The inhibition at 10 g/ha was 0%.

What about the inhibition at 30 g/ha [4] of the same molecule?
Its inhibition at 30 g/ha is 0%.

And the inhibition at 100 g/ha ([4]; 100 g/ha)?
The inhibition at 100 g/ha was 0%.

And the inhibition at 300 g/ha ([4]; 300 g/ha)?
Its inhibition at 300 g/ha is 0%.

And the melting point?
The melting point was 58 to 59 °C.

And the inhibition at 10 g/ha [6]?
Its inhibition at 10 g/ha is 0%.

And the inhibition at 30 g/ha [6]?
Its inhibition at 30 g/ha is 0%.

What about the inhibition at 100 g/ha [6] of the same molecule?
Its inhibition at 100 g/ha is 0%.

And the inhibition at 300 g/ha [6]?
The inhibition at 300 g/ha was 0%.

What about the inhibition at 900 g/ha [6] of the same molecule?
The inhibition at 900 g/ha was 0%.

And the inhibition at 10 g/ha [7, 12]?
The inhibition at 10 g/ha was 0%.

And the inhibition at 30 g/ha [7, 12]?
Its inhibition at 30 g/ha is 0%.

And the inhibition at 100 g/ha [7, 12]?
The inhibition at 100 g/ha was 0%.

What about the inhibition at 300 g/ha [7, 12] of the same molecule?
Its inhibition at 300 g/ha is 0%.

And the “Pre-emergence activity (GR80) DATST” value [7]?
The value was 300 g/ha.

What about the “PPI activity (GR80) CONAR” value [8] of the same molecule?
The value was “* (activity observed, at least at highest rate, but <80% inhibition)”.

What about the inhibition at 10 g/ha [9] of the same molecule?
Its inhibition at 10 g/ha is 0%.

What about the inhibition at 30 g/ha [9] of the same molecule?
The inhibition at 30 g/ha was 0%.

And the inhibition at 300 g/ha [9]?
Its inhibition at 300 g/ha is 0%.

And the inhibition at 900 g/ha [9]?
Its inhibition at 900 g/ha is 50%.

And the “PPI activity (GR80) POROL” value [10]?
The value was 100 g/ha.

And the inhibition at 10 g/ha [11, 13]?
The inhibition at 10 g/ha was 0%.

And the inhibition at 30 g/ha [11, 13]?
The inhibition at 30 g/ha was 0%.

What about the inhibition at 100 g/ha ([11]; Abutilon theophrasti, pre-emergence application, 100 g/ha, read-out: Percent inhibition, weed ABUTH) of the same molecule?
Its inhibition at 100 g/ha is 0%.

What about the inhibition at 300 g/ha [11, 13] of the same molecule?
The inhibition at 300 g/ha was 0%.

What about the inhibition at 900 g/ha [11, 13] of the same molecule?
Its inhibition at 900 g/ha is 0%.

And the “Pre-emergence activity (GR80) ABUTH” value [11]?
The value was 300 g/ha.
